According to patent US12077508B2, “Inhibitors of the Notch transcriptional activation complex kinase (“NACK”) and methods for use of the same” (UNIVERSITY OF MIAMI, priority 2018, dated 2024):
Entries after “also recorded” stand apart in the source; their conditions may differ. Where two headings read alike, the source gives them in different places.

Legend:
HES1 promoter = assay: Chromatin immunoprecipitation (ChIP) at the HES1 promoter in OE33; assay type: cell-based, human; conditions: FIG. 8C
Method: Notch/NACK-dependent cells were treated with either DAPT as a positive control, DMSO (vehicle) as a negative control, or compounds for screening for 24 hours. After treatment, cells were cross-linked and sonicated to yield chromatin fragments of approximately 500 bp, as previously described (See Weaver et al., Cancer Research 74, 4741-4751 (2014)). Lysates were immunoprecipitated with either α-Notch1 (Bethyl Laboratories, Montgomery, TX; A301-894A), α-Maml1 (Cell Signaling, 12166s), α-NACK (Bethyl Laboratories, A302-675A), or α-PoIII pSer5 (Abcam, ab5131) antibodies. DNA immunoprecipitates were cleaned using the PCR purification Kit (Qiagen). DNA were detected by Syber green qPCR using HES1 specific oligonucleotide primers (forward: 5′CGTGTCTCCTCCTCCCATT3′ (SEQ ID NO: 2); reverse: 5′GGGGGATTCCGCTGTTAT3′ (SEQ ID NO:3)).

Notch target genes = assay: RT-qPCR of Notch target genes in Notch/NACK-dependent cells; assay type: cell-based, human; conditions: OE33; FIG. 6B
Method: To assess the effect of NACK inhibitor on Notch target gene transcription, Notch/NACK-dependent cell lines were treated with NACK inhibitors. The cells were also treated with DAPT as a positive control. DMSO treated cells served as a vehicle control for comparison. Gene expression was normalized to HPRT, and TBP served as a negative control to validate normalization.
Reverse transcription and qPCR analysis were performed as described previously (See Weaver et al., Cancer Research 74, 4741-4751 (2014)). Gene expression was normalized to the TATA-binding protein (“TBP”) gene. As a control, hypoxanthine phosphoribosyltransferase 1 (“HPRT”) gene expression was also monitored.

HC11 cells = assay: Colony formation assay in HC11 cells; assay type: cell-based, mouse; conditions: Notch/NACK independent cell line; FIG. 5B
Method: (§1) A cell based colony formation assay was used in these experiments. Normal mouse mammary epithelia HC11 cells have little or no endogenous NACK expression, and NACK knockdown had no effect on the growth of HC11 cells (FIG. 5A, lower panel). […] Knockdown of NACK was confirmed by western blot and qPCR (FIGS. 1D and 1E). […] Therefore, compounds that affect OE33 colony formation but not HC11 were desired. In order to screen the compounds, cells were treated with test compounds every other day.
(§2) Colony formation assay was utilized to determine the effect of small molecule inhibitors on cell proliferation. In general, different cell lines (NACK dependent or independent) will be seeded in 6-well plates at a density of 2000 cells per well and allowed to attach overnight. Inhibitor treatment commenced 24 hours post seeding, and the media containing inhibitor was changed every 48 hours thereafter. After 168 hours, colonies were be stained with Crystal Violet (Millipore) and counted.

OE33 cell line = assay: Colony formation assay in OE33 cells; assay type: cell-based, human; conditions: for EC50: Homo sapiens, read-out: EC50 colony formation titration assay
Method: as §1, §2

[1] = Maximum tolerated dose in efficacy studies; conditions: mouse, in vivo, ip, 25 mg/kg; 4-week efficacy studies; intraperitoneal
Plasma pharmacokinetics = assay type: in vivo, male C57 BL/6 mice; conditions: for Tmax: ip
From the text: The plasma pharmacokinetic profile of Z271-0326 was investigated following a single intravenous and intraperitoneal dose administration in male C57 BL/6 mice (FIG. 12). […] The Vss was similar to the normal volume of total body water (0.7 L/kg). The Vss is a pharmacokinetic parameter, which represents the volume distribution of a drug in the body tissue. […] This dose was MTD for the 4-week efficacy studies shown in preliminary data.
The plasma pharmacokinetic profile of Z271-0326 was investigated following a single intravenous and intraperitoneal dose administration in male C57 BL/6 mice.

HC11/N1ICD spheres = assay: Tumor sphere formation assay in HC11/N1ICD; assay type: cell-based, mouse
From the text: To further explore the effect of NACK inhibitors targeting Notch pathway, ectopic expression of Notch in HC11 mammary epithelial cells was constructed, as HC11 cells have little to no endogenous Notch activity. Moreover, HC11 cells are insensitive to either DAPT or Z271-0326 treatment as shown in previous colony formation assay (FIG. 5B). See Weaver et al., Cancer Research 74, 4741-4751 (2014). […] Therefore, transformation of HC11 cells by Notch now renders these cells dependent on Notch activity and sensitive to inhibition of NACK by Z271-0326.
In order to assess the effect of hit to lead compounds on the proliferation of stem cell like population of Notch/NACK dependent cells, the primary tumor spheres were treated with NACK inhibitor and allow the cells to be propagated as secondary cultures. To obtain tumor spheres, cells were cultured in DMEM/F12 with 2% B-27 serum-free supplement (17604-044; Invitrogen), 20 ng/mL epidermal growth factor (EGF; PHG0311L; Invitrogen), and 20 ng/mL basic fibroblastic growth factor (bFGF; PHG0266; Invitrogen) for 14 days. Resulting tumor spheres were examined and counted under the microscope. Furthermore, the tumor spheres were collected for further RT-qPCR analysis to test the effect of hit to lead compounds on the stem like target genes.

MAP4K5 = MAP4K5 (Homo sapiens, UniProt Q9Y4K4); assay: ADP-Glo MAP4K5 kinase assay; assay type: biochemical; conditions: FIG. 17A
Chain of MAP4K5 (Q9Y4K4 whole entry, species assumed): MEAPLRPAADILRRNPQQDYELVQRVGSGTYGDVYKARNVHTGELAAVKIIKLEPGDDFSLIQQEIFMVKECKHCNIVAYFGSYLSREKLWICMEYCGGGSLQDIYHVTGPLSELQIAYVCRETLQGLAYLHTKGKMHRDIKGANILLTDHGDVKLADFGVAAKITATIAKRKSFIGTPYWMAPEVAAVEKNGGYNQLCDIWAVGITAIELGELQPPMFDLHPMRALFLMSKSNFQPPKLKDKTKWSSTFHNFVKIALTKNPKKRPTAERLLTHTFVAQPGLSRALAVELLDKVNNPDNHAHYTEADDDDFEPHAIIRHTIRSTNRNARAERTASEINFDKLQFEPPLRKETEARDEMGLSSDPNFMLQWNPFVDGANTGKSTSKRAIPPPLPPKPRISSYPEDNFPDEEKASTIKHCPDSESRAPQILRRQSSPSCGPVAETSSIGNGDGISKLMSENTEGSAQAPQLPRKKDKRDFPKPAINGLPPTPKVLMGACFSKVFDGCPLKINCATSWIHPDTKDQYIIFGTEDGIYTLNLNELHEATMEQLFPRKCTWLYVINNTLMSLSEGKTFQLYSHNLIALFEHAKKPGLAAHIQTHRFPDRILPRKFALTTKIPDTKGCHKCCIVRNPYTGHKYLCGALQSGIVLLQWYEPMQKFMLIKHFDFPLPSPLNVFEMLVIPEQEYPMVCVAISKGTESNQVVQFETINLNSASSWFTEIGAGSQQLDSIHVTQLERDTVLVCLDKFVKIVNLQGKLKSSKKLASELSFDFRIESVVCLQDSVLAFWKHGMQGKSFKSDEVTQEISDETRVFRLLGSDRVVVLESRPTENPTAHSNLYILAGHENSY
Method: ADP-Glo kinase assay was performed using ADP-Glo™ Kinase Assay (Promega, V6930) according to the manufacture recommended protocol.

**Q.** For `CCN(CC)C(=O)c1cnn2ccc(C3CCN(S(=O)(=O)c4ccc(NC(C)=O)cc4)CC3)cc12` [Compound Z271-0326, 5-(1-((4-acetamidophenyl)sulfonyl)piperidin-4-yl)-N,N-diethylpyrazolo[1,5-a]pyridine-3-carboxamide], which “binding of N1ICD and NACK to the HES1 promoter” value (HES1 promoter; 24 hours) is on record?
**A.** Its value is “abrogated the binding of N1ICD and NACK to the HES1 promoter”.

**Q.** And the “Pol II pSer5 initiation complex formation at the HES1 promoter” value (HES1 promoter)?
**A.** Its value is “decreases the RNA polymerase initiation complex (Pol II pSer5) formation at the HES1 promoter”.

**Q.** What about the “mRNA levels of Notch target genes Hes1 and Notch3” value (Notch target genes) of the same molecule?
**A.** Its value is “decrease the mRNA levels of Notch target genes Hes1 and Notch3”.

**Q.** And the “HC11 colony formation / viability” value (HC11 cells)?
**A.** Its value is “but not HC11 cell; also recorded: insensitive”.

**Q.** What about the EC50 (OE33 cell line; OE33, OE33 cell line, FIG. 18) of the same molecule?
**A.** The EC50 was 1.27 µM.

**Q.** And the EC50 (OE33 cell line; OE33, estimated, FIG. 6C)?
**A.** Its EC50 is 1.05 µM.

**Q.** What about the OE33 colony formation (OE33 cell line; cells treated every other day, FIGS. 5B, 5C) of the same molecule?
**A.** Its OE33 colony formation is “effectively inhibit OE33 colony formation”.

**Q.** What about the MTD at 4 weeks [1] of the same molecule?
**A.** The MTD at 4 weeks was 25 mg/kg.

**Q.** And the Tmax (Plasma pharmacokinetics; male, C57BL/6, mouse, plasma, single intraperitoneal 25 mg/kg)?
**A.** Its Tmax is 15 min.

**Q.** And the Tmax (Plasma pharmacokinetics; male, C57BL/6, mouse, plasma, single intraperitoneal 100 mg/kg)?
**A.** Its Tmax is 60 min.

**Q.** And the clearance (Plasma pharmacokinetics; male, C57BL/6, mouse, plasma, single intravenous 5 mg/kg, read-out: systemic plasma clearance)?
**A.** The clearance was 30 mL/min/kg.

**Q.** And the half-life (Plasma pharmacokinetics; male, C57BL/6, mouse, plasma, single intravenous 5 mg/kg, read-out: terminal elimination half-life (converted))?
**A.** Its half-life is 13.8 min.

**Q.** What about the Vd (Plasma pharmacokinetics; male, C57BL/6, mouse, plasma, single intravenous 5 mg/kg, similar to total body water, read-out: Vss) of the same molecule?
**A.** Its Vd is about 0.7 L/kg.

**Q.** And the “time plasma concentrations quantifiable up to” value (Plasma pharmacokinetics; single intraperitoneal 25 mg/kg)?
**A.** The value was “up to 4 hr”.

**Q.** And the “time plasma concentrations quantifiable up to” value (Plasma pharmacokinetics; single intraperitoneal 100 mg/kg)?
**A.** Its value is “up to 24 hr”.

**Q.** And the “HES1 and stem-cell marker gene expression (ALDH1A1, SNAIL1, TWIST1)” value (HC11/N1ICD spheres; HC11/N1ICD spheres, FIG. 7D)?
**A.** Its value is “causes a decrease in HES1 gene expression as well as several other stem-cell marker genes”.

**Q.** What about the secondary sphere formation (HC11/N1ICD spheres; HC11/N1ICD, FIG. 7C) of the same molecule?
**A.** Its secondary sphere formation is “inhibits the ability of HC11/N1ICD spheres to form secondary spheres”.

**Q.** And the MAP4K5 kinase inhibition (MAP4K5)?
**A.** Its MAP4K5 kinase inhibition is “only meaningfully inhibits LCK out of the three kinases”.
